# Data reported in ChEMBL document CHEMBL3885881, “DrugMatrix”.
# Species: Rattus norvegicus
# Experiment: DrugMatrix - Regimen: Daily Repeat
# Type: toxicity, organism-based, Sprague-Dawley
# Design: regimen Daily Repeat, gender Male, age 6-8 weeks
# Settings: in vivo, po, route oral GAVAGE, vehicle .5 % CMC; for ABSOLUTE BASOPHIL / ABSOLUTE EOSINOPHIL / ABSOLUTE LYMPHOCYTE / ABSOLUTE MONOCYTE / ABSOLUTE SEGMENTED NEUTROPHIL / BASOPHIL / EOSINOPHIL / ERYTHROCYTE COUNT / HEMATOCRIT / HEMOGLOBIN / LEUKOCYTE COUNT / LYMPHOCYTE / MEAN CORPUSCULAR HEMOGLOBIN / MEAN CORPUSCULAR HEMOGLOBIN CONCENTRATION / MEAN CORPUSCULAR VOLUME / MONOCYTE / NEUTROPHIL / NUCLEATED RED BLOOD CELLS / PLATELET COUNT: tissue Blood; for ALANINE AMINOTRANSFERASE / ALBUMIN / ALKALINE PHOSPHATASE / ASPARTATE AMINOTRANSFERASE / BLOOD UREA NITROGEN / CARBON DIOXIDE / CHLORIDE / CHOLESTEROL / CREATINE PHOSPHOKINASE / CREATININE / GLUCOSE / LACTATE DEHYDROGENASE / LIPASE / POTASSIUM / SODIUM / TOTAL BILIRUBIN / TOTAL PROTEIN: tissue Plasma
# [1] = 0 mg/kg, 72 h, dose level Control, time 3 day
# [2] = 0 mg/kg, 120 h, dose level Control, time 5 day
# [3] = 150 mg/kg, 72 h, dose level Low, time 3 day
smiles,measurement,setting,value
C[C@@H]1CC[C@H]2[C@@H](C)C(=O)O[C@@H]3O[C@@]4(C)CC[C@@H]1[C@]32OO4 [ARTEMISININ],ABSOLUTE BASOPHIL,[1],0 CELLS/uL
same,ABSOLUTE EOSINOPHIL,[1],171.33 CELLS/uL
same,ABSOLUTE LYMPHOCYTE,[1],13776.5 CELLS/uL
same,ABSOLUTE MONOCYTE,[1],180.83 CELLS/uL
same,ABSOLUTE SEGMENTED NEUTROPHIL,[1],1121.33 CELLS/uL
same,BASOPHIL,[1],0%
same,EOSINOPHIL,[1],1%
same,ERYTHROCYTE COUNT,[1],5.56 x10E6/uL
same,HEMATOCRIT,[1],34.75%
same,HEMOGLOBIN,[1],13.68 G/DL
same,LEUKOCYTE COUNT,[1],15.25 x10E3/uL
same,LYMPHOCYTE,[1],90.17%
same,MEAN CORPUSCULAR HEMOGLOBIN,[1],24.6 pg
same,MEAN CORPUSCULAR HEMOGLOBIN CONCENTRATION,[1],39.4 G/DL
same,MEAN CORPUSCULAR VOLUME,[1],62.48 fL
same,MONOCYTE,[1],1.17%
same,NEUTROPHIL,[1],7.67%
same,NUCLEATED RED BLOOD CELLS,[1],0 /100WBC
same,PLATELET COUNT,[1],1342 x10E3/uL
same,ALANINE AMINOTRANSFERASE,[1],49.67 u/L
same,ALBUMIN,[1],4.15 G/DL
same,ALKALINE PHOSPHATASE,[1],346.83 u/L
same,ASPARTATE AMINOTRANSFERASE,[1],108.17 u/L
same,BLOOD UREA NITROGEN,[1],17.33 mg/dL
same,CARBON DIOXIDE,[1],25 mmol/L
same,CHLORIDE,[1],100.83 MEQ/L
same,CHOLESTEROL,[1],66.83 mg/dL
same,CREATINE PHOSPHOKINASE,[1],788 u/L
same,CREATININE,[1],0.18 mg/dL
same,GLUCOSE,[1],151.67 mg/dL
same,LACTATE DEHYDROGENASE,[1],982.5 u/L
same,LIPASE,[1],10.33 u/L
same,POTASSIUM,[1],6.37 MEQ/L
same,SODIUM,[1],141.02 MEQ/L
same,TOTAL BILIRUBIN,[1],0.18 mg/dL
same,TOTAL PROTEIN,[1],5.9 G/DL
same,ABSOLUTE BASOPHIL,[2],0 CELLS/uL
same,ABSOLUTE EOSINOPHIL,[2],69 CELLS/uL
same,ABSOLUTE LYMPHOCYTE,[2],13632.83 CELLS/uL
same,ABSOLUTE MONOCYTE,[2],139.83 CELLS/uL
same,ABSOLUTE SEGMENTED NEUTROPHIL,[2],1225 CELLS/uL
same,BASOPHIL,[2],0%
same,EOSINOPHIL,[2],0.33%
same,ERYTHROCYTE COUNT,[2],5.52 x10E6/uL
same,HEMATOCRIT,[2],33.98%
same,HEMOGLOBIN,[2],13.22 G/DL
same,LEUKOCYTE COUNT,[2],15.07 x10E3/uL
same,LYMPHOCYTE,[2],90.83%
same,MEAN CORPUSCULAR HEMOGLOBIN,[2],23.95 pg
same,MEAN CORPUSCULAR HEMOGLOBIN CONCENTRATION,[2],38.9 G/DL
same,MEAN CORPUSCULAR VOLUME,[2],61.53 fL
same,MONOCYTE,[2],0.83%
same,NEUTROPHIL,[2],8%
same,NUCLEATED RED BLOOD CELLS,[2],0 /100WBC
same,PLATELET COUNT,[2],1196 x10E3/uL
same,ALANINE AMINOTRANSFERASE,[2],49.17 u/L
same,ALBUMIN,[2],4.2 G/DL
same,ALKALINE PHOSPHATASE,[2],352.33 u/L
same,ASPARTATE AMINOTRANSFERASE,[2],89.67 u/L
same,BLOOD UREA NITROGEN,[2],18 mg/dL
same,CARBON DIOXIDE,[2],27.67 mmol/L
same,CHLORIDE,[2],101 MEQ/L
same,CHOLESTEROL,[2],72.83 mg/dL
same,CREATINE PHOSPHOKINASE,[2],417.5 u/L
same,CREATININE,[2],0.18 mg/dL
same,GLUCOSE,[2],150.5 mg/dL
same,LACTATE DEHYDROGENASE,[2],517.33 u/L
same,LIPASE,[2],9 u/L
same,POTASSIUM,[2],6.57 MEQ/L
same,SODIUM,[2],143.62 MEQ/L
same,TOTAL BILIRUBIN,[2],0.2 mg/dL
same,TOTAL PROTEIN,[2],6.08 G/DL
same,ABSOLUTE BASOPHIL,[3],0 CELLS/uL
same,ABSOLUTE EOSINOPHIL,[3],206 CELLS/uL
same,ABSOLUTE LYMPHOCYTE,[3],10521.33 CELLS/uL
same,ABSOLUTE MONOCYTE,[3],315 CELLS/uL
same,ABSOLUTE SEGMENTED NEUTROPHIL,[3],957.67 CELLS/uL
same,BASOPHIL,[3],0%
same,EOSINOPHIL,[3],1.67%
same,ERYTHROCYTE COUNT,[3],6.1 x10E6/uL
same,HEMATOCRIT,[3],36.63%
same,HEMOGLOBIN,[3],13.77 G/DL
same,LEUKOCYTE COUNT,[3],12 x10E3/uL
same,LYMPHOCYTE,[3],87.67%
same,MEAN CORPUSCULAR HEMOGLOBIN,[3],22.63 pg
same,MEAN CORPUSCULAR HEMOGLOBIN CONCENTRATION,[3],37.6 G/DL
same,MEAN CORPUSCULAR VOLUME,[3],60.1 fL
same,MONOCYTE,[3],2.67%
same,NEUTROPHIL,[3],8%
same,NUCLEATED RED BLOOD CELLS,[3],0 /100WBC
same,PLATELET COUNT,[3],1362.67 x10E3/uL
same,ALANINE AMINOTRANSFERASE,[3],38 u/L
same,ALBUMIN,[3],4.53 G/DL
same,ALKALINE PHOSPHATASE,[3],347.67 u/L
same,ASPARTATE AMINOTRANSFERASE,[3],86.67 u/L
same,BLOOD UREA NITROGEN,[3],22 mg/dL
same,CARBON DIOXIDE,[3],25.33 mmol/L
same,CHLORIDE,[3],104.33 MEQ/L
same,CHOLESTEROL,[3],87.67 mg/dL
same,CREATINE PHOSPHOKINASE,[3],336.33 u/L
same,CREATININE,[3],0.24 mg/dL
same,GLUCOSE,[3],145.67 mg/dL
same,LACTATE DEHYDROGENASE,[3],459.33 u/L
same,LIPASE,[3],11 u/L
same,POTASSIUM,[3],6.03 MEQ/L
same,SODIUM,[3],146.83 MEQ/L
same,TOTAL BILIRUBIN,[3],0.13 mg/dL
